Tested on in the first data set: not listed separately
Kind of data set: Pharmacokinetic study, oral dosing, plasma concentration by LC-MS/MS. Conditions: mouse; female swiss mice, fasted overnight, oral 3 mg/kg in PEG 400, plasma. It counts as in vivo. On the procedure:
For pharmacokinetic study female swiss mice were used. The swiss mice weighing 25-30 g, fasted overnight, were orally dosed at 3 mg/kg body weight of compound in PEG 400. Blood samples (40 μl) were collected from each mouse by retro-orbital bleeding at 0, 0.16, 0.5, 1, 2, 4, 6 and 8 h after dosing into the tubes containing heparin as an anticoagulant. The samples were stored in ice and within 1 h after collection samples were centrifuged at 10000 RPM at 4° C. Plasma was collected and stored at −80° C. until analyis. The concentration of compounds in plasma were determined by liquid chromatography-tandem mass spectrometry (LC-MS/MS).
The protein precipitation method was used to extract the compounds. Acetonitrile was added to plasma, vortexed and centrifuged at 10000 RPM at 4° C. The supenatent was collected and injected onto the column. A CTC HTC PAL auto sampler (LEAP Technologies) linked to a Shimadzu SCL-10A VP HTC controller with LC-10AD pumps (Shimadzu), coupled with a Sciex API 3000 triple quadrupole mass spectrometer were used for the LC-MS/MS analysis. Some compounds as per the present invention are represented in the table below, were tested and their PK values are reported in Table 2.
T1 sequence (P42336 whole entry): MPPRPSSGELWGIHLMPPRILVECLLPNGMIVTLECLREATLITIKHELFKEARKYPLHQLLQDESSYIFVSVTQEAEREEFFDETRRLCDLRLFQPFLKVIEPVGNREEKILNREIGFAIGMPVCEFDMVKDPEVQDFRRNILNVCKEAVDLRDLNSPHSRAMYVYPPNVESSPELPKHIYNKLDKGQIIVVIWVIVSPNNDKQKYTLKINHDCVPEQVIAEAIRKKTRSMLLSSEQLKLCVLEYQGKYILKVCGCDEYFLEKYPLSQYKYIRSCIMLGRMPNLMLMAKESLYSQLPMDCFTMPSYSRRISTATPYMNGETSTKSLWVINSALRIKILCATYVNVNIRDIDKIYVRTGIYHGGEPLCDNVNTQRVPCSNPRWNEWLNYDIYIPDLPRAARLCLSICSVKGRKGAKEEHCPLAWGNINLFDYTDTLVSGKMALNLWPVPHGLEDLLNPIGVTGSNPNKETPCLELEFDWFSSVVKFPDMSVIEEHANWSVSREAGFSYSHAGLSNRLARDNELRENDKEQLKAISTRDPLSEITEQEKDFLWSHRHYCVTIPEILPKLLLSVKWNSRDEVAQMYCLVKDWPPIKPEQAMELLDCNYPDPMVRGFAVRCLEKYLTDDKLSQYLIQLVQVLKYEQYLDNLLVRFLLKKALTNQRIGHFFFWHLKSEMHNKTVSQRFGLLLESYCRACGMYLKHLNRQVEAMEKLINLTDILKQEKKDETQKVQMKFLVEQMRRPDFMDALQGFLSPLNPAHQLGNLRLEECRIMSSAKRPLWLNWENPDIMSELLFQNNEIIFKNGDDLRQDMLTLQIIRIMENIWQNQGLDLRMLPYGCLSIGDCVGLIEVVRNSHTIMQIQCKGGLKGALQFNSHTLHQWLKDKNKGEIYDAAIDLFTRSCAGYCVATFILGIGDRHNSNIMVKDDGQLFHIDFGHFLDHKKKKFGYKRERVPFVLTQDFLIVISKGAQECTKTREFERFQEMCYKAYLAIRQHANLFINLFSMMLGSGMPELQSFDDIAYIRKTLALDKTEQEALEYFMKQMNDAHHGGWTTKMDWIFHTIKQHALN
T1 sequence (P27986 whole entry partner): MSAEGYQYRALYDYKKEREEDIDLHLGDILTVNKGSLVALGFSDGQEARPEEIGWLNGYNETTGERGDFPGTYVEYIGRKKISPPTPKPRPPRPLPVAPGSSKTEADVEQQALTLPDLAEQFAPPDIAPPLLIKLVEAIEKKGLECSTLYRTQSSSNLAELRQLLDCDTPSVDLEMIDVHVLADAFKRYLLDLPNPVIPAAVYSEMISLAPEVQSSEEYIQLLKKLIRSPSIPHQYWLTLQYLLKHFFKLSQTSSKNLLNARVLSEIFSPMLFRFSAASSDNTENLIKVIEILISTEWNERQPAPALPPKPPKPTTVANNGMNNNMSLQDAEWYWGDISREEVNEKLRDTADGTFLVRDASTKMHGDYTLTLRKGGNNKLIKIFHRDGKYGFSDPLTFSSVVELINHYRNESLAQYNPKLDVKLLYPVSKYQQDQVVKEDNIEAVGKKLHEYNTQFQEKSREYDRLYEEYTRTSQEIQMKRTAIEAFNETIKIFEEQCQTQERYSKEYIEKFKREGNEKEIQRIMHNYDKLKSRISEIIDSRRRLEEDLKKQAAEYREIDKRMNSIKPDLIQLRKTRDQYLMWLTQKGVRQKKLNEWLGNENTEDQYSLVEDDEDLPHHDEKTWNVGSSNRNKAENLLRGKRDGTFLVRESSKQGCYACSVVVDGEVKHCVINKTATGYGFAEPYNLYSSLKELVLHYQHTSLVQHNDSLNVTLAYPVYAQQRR
`CNC(=O)c1ccc(Oc2nc(-c3cccc4[nH]ncc34)nc(N3CCOCC3)n2)cc1` [Compound 1113, 4-14-{[4-1-(1H-indazol-4-yl)-6-5-(morpholin-4-yl)-1,3,5-triazin-2-yl]oxy}-N-methylbenzamide] gave a Cmax of 1240 nM.

The data set is the same for the next values; noted with them: mouse; female swiss mice, fasted overnight, oral 3 mg/kg in PEG 400, plasma; read-out: AUC.
As for `CNC(=O)c1ccc(Oc2nc(-c3cccc4[nH]ncc34)nc(N3CCOCC3)n2)cc1` [Compound 1113, 4-14-{[4-1-(1H-indazol-4-yl)-6-5-(morpholin-4-yl)-1,3,5-triazin-2-yl]oxy}-N-methylbenzamide], the AUC was determined as 5.25 µM·h.

The same data set, now with this note: mouse; female swiss mice, fasted overnight, oral 3 mg/kg in PEG 400, plasma; read-out: Elimination t1/2 (converted).
Take `CNC(=O)c1ccc(Oc2nc(-c3cccc4[nH]ncc34)nc(N3CCOCC3)n2)cc1` [Compound 1113, 4-14-{[4-1-(1H-indazol-4-yl)-6-5-(morpholin-4-yl)-1,3,5-triazin-2-yl]oxy}-N-methylbenzamide]: the half-life was 4.86 h.

Staying with this data set, now noted: mouse; female swiss mice, fasted overnight, oral 3 mg/kg in PEG 400, plasma; read-out: Tmax.
On to `CNC(=O)c1ccc(Oc2nc(-c3cccc4[nH]ncc34)nc(N3CCOCC3)n2)cc1` [Compound 1113, 4-14-{[4-1-(1H-indazol-4-yl)-6-5-(morpholin-4-yl)-1,3,5-triazin-2-yl]oxy}-N-methylbenzamide], for which the Tmax is 1 h.

The next data set addresses T1, PI3K alpha (Homo sapiens, UniProt P42336).
T1 construct: purchased Millipore Upstate
Briefly: P110 Alpha TR-FRET Assay (PI3K alpha kinase assay, HTRF Transcreener ADP Assay). The note with it: PI3K (WT). The data set is classed as biochemical. The method, boiled down:
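HTRF Transcreener ADP read-out of ADP formed by PI3K (50 ng enzyme) in 50 mM HEPES pH 7.5, 5 mM MgCl2, 1 mM DTT, 30 μM Na3VO4. Compound preincubated with enzyme 20 min; reaction started with 10 μM ATP and 5 μM PIP2, run 20 min, then ADP-d2/anti-ADP cryptate detection for 1 h.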
Take `ON=C1CCN(c2nc(-c3cccc4[nH]ncc34)nc(N3CCOCC3)n2)CC1` [Compound 1208, N-{1-8-[4-1-(1H-indazol-4-yl)-6-5-(morpholin-4-yl)-1,3,5-triazin-2-yl]piperidin-4-ylidene}hydroxylamine]: the IC50 is < 5 µM. The same measure, in the same setting: the value for `CN(C)C(=O)C(Cc1ccccc1)Nc1nc(-c2cccc3[nH]ncc23)nc(N2CCOCC2)n1` (stereo not shown) [Compound 1209, 2-((4-(1H-indazol-4-yl)-6-morpholino-1,3,5-triazin-2-yl)amino)-N,N-dimethyl-3-phenylpropanamide] was < 5 µM; that for `CN(C)C(=O)C(CCS(C)(=O)=O)Nc1nc(-c2cccc3[nH]ncc23)nc(N2CCOCC2)n1` (stereo not shown) [Compound 1210, 2-((4-(1H-indazol-4-yl)-6-morpholino-1,3,5-triazin-2-yl)amino)-N,N-dimethyl-4-(methylsulfonyl)butanamide] was < 5 µM; that for `CS(=O)(=O)N1CCN(c2nc(-c3cccc4[nH]ncc34)nc(N3CCOCC3)n2)CC1` [Compound 1211, 4-7-[4-3-(4-16-methanesulfonylpiperazin-1-yl)-6-5-(morpholin-4-yl)-1,3,5-triazin-2-yl]-1H-indazole] was < 5 µM. Still for that read-out and setting: the value for `Oc1nc(-c2cccc3[nH]ncc23)nc(N2CCOCC2)n1` [Compound 1212, 4-1-(1H-indazol-4-yl)-6-5-(morpholin-4-yl)-1,3,5-triazin-2-ol] was < 5 µM; that for `c1cc(-c2nc(N3CCCNCC3)nc(N3CCOCC3)n2)c2cn[nH]c2c1` [Compound 1213, 4-12-[4-3-(1,4-diazepan-1-yl)-6-5-(morpholin-4-yl)-1,3,5-triazin-2-yl]-1H-indazole] was < 5 µM; that for `CN(C)C(=O)[C@H]1CC[C@H](Nc2nc(-c3cccc4[nH]ncc34)nc(N3CCOCC3)n2)CC1` [Compound 1214, (1r,4r)-4-((4-(1H-indazol-4-yl)-6-morpholino-1,3,5-triazin-2-yl)amino)-N,N-dimethylcyclohexanecarboxamide] was < 5 µM. Still for that read-out and setting: in the case of `CNC(=O)[C@H]1CC[C@@H](Nc2nc(-c3cccc4[nH]ncc34)nc(N3CCOCC3)n2)CC1` [Compound 1215, 4-((4-(1H-indazol-4-yl)-6-morpholino-1,3,5-triazin-2-yl)amino)-N-methylcyclohexanecarboxamide] it was < 5 µM; in that of `CN(C)C(=O)[C@H]1CC[C@@H](Nc2nc(-c3cccc4[nH]ncc34)nc(N3CCOCC3)n2)CC1` [Compound 1216, 4-((4-(1H-indazol-4-yl)-6-morpholino-1,3,5-triazin-2-yl)amino)-N,N-dimethylcyclohexanecarboxamide], < 5 µM; in that of `CN(C)C(=O)[C@H]1CCCN1c1nc(-c2cccc3[nH]ncc23)nc(N2CCOCC2)n1` [Compound 1217, (2R)-1-7-[4-1-(1H-indazol-4-yl)-6-5-(morpholin-4-yl)-1,3,5-triazin-2-yl]-N,N-dimethylpyrrolidine-2-carboxamide], < 5 µM. `CNC(=O)N1CCN(c2nc(-c3cccc4[nH]ncc34)nc(N3CCOCC3)n2)CC1` [Compound 1218, 4-7-[4-1-(1H-indazol-4-yl)-6-5-(morpholin-4-yl)-1,3,5-triazin-2-yl]-N-methylpiperazine-1-carboxamide]: the IC50 is < 5 µM. Still for that read-out and setting: the value for `c1ccc(Nc2nc(-c3cccc4[nH]ncc34)nc(N3CCOCC3)n2)cc1` [Compound 1219, 4-(1H-indazol-4-yl)-6-morpholino-N-phenyl-1,3,5-triazin-2-amine] was < 5 µM; that for `OC1CCN(c2nc(-c3cccc4[nH]ncc34)nc(N3CCOCC3)n2)CC1` [Compound 1220, 1-8-[4-1-(1H-indazol-4-yl)-6-5-(morpholin-4-yl)-1,3,5-triazin-2-yl]piperidin-4-ol] was < 5 µM; that for `O=C1CCN(c2nc(-c3cccc4[nH]ncc34)nc(N3CCOCC3)n2)CC1` [Compound 1221, 1-8-[4-1-(1H-indazol-4-yl)-6-5-(morpholin-4-yl)-1,3,5-triazin-2-yl]piperidin-4-one] was < 5 µM. Consider `NC1CCN(c2nc(-c3cccc4[nH]ncc34)nc(N3CCOCC3)n2)CC1` [Compound 1222, 1-8-[4-1-(1H-indazol-4-yl)-6-5-(morpholin-4-yl)-1,3,5-triazin-2-yl]piperidin-4-amine], for which the half-maximal inhibitory concentration (IC50) is < 5 µM. Still for that read-out and setting: the value for `CN(C)C(=O)CCNc1nc(-c2cccc3[nH]ncc23)nc(N2CCOCC2)n1` [Compound 1223, 3-((4-(1H-indazol-4-yl)-6-morpholino-1,3,5-triazin-2-yl)amino)-N,N-dimethylpropanamide] was < 5 µM; that for `c1cc(-c2nc(-c3cccc4[nH]ncc34)nc(N3CCOCC3)n2)c2cn[nH]c2c1` [Compound 1224, 4-12-[4-3-(1H-indazol-4-yl)-6-5-(morpholin-4-yl)-1,3,5-triazin-2-yl]-1H-indazole] was < 5 µM. On the same count and under the same terms, the value for `c1cc(-c2nc(NC3CCOCC3)nc(N3CCOCC3)n2)c2cn[nH]c2c1` [Compound 1225, 4-(1H-indazol-4-yl)-6-morpholino-N-(tetrahydro-2H-pyran-4-yl)-1,3,5-triazin-2-amine] was < 5 µM; that for `Cc1nc(-c2cccc3[nH]ncc23)nc(N2CCOCC2)n1` [Compound 1226, 4-7-[4-3-methyl-6-5-(morpholin-4-yl)-1,3,5-triazin-2-yl]-1H-indazole] was < 5 µM; that for `O=C(O)CCNc1nc(-c2cccc3[nH]ncc23)nc(N2CCOCC2)n1` [Compound 1227, 3-((4-(1H-indazol-4-yl)-6-morpholino-1,3,5-triazin-2-yl)amino)propanoic acid] was < 5 µM. The same measure, in the same setting: in the case of `CN1CCN(c2nc(-c3cccc4[nH]ncc34)nc(N3CCOCC3)n2)CC1` [Compound 1228, 4-18-[4-3-(4-15-methylpiperazin-1-yl)-6-5-(morpholin-4-yl)-1,3,5-triazin-2-yl]-1H-indazole] it was < 5 µM. `c1cc(-c2nc(N3CCNCC3)nc(N3CCOCC3)n2)c2cn[nH]c2c1` [Compound 1229, 4-17-[4-5-(morpholin-4-yl)-6-3-(piperazin-1-yl)-1,3,5-triazin-2-yl]-1H-indazole]: the IC50 is < 5 µM. Same read-out and setting: in the case of `O=C1CN(c2nc(-c3cccc4[nH]ncc34)nc(N3CCOCC3)n2)CCN1` [Compound 1230, 4-7-[4-1-(1H-indazol-4-yl)-6-5-(morpholin-4-yl)-1,3,5-triazin-2-yl]piperazin-2-one] it was < 5 µM; in that of `Nc1nc(-c2cccc3[nH]ncc23)nc(N2CCOCC2)n1` [Compound 1231, 4-2-(1H-indazol-4-yl)-6-0-(morpholin-4-yl)-1,3,5-triazin-2-amine], > 5 µM. Regarding `CC(C)(CO)Nc1nc(-c2cccc3[nH]ncc23)nc(N2CCOCC2)n1` [Compound 1232, 2-((4-(1H-indazol-4-yl)-6-morpholino-1,3,5-triazin-2-yl)amino)-2-methylpropan-1-ol], the half-inhibitory concentration (IC50) was < 5 µM. Take `c1cc(-c2nc(N3CCOCC3)nc(N3CCOCC3)n2)c2cn[nH]c2c1` [Compound 1233, 4-8-[4-3,6-5-bis(morpholin-4-yl)-1,3,5-triazin-2-yl]-1H-indazole]: the IC50 was < 5 µM.

For `CC(Nc1nc(-c2cccc3[nH]ncc23)nc(N2CCOCC2)n1)C(N)=O` (stereo not shown) [Compound 1234, 2-((4-(1H-indazol-4-yl)-6-morpholino-1,3,5-triazin-2-yl)amino)propanamide], the IC50 was < 5 µM. On the same count and under the same terms, in the case of `CC(C)(Nc1nc(-c2cccc3[nH]ncc23)nc(N2CCOCC2)n1)C(=O)O` [Compound 1235, 2-((4-(1H-indazol-4-yl)-6-morpholino-1,3,5-triazin-2-yl)amino)-2-methylpropanoic acid] it was < 5 µM; in that of `O=C(O)CNc1nc(-c2cccc3[nH]ncc23)nc(N2CCOCC2)n1` [Compound 1236, 2-((4-(1H-indazol-4-yl)-6-morpholino-1,3,5-triazin-2-yl)amino)acetic acid], < 5 µM; in that of “N-[(4E)-1-8-[4-1-(1-21-{4-24-[(4E)-4-37-(hydroxyimino)azepan-1-yl]-6-26-(morpholin-4-yl)-1,3,5-triazin-2-yl}-1H-indazol-4-yl)-6-5-(morpholin-4-yl)-1,3,5-triazin-2-yl]azepan-4-ylidene]hydroxylamine [Compound 1123]”, < 5 µM.

These data come from US9481670B2, “Triazine compounds” (Sphaera Pharma PTE. Ltd., priority 2011, dated 2016).
